Test system: Brassica plants comprising mutant AHAS alleles
Test: Field trial, pre-planting treatment (0, 10, 20, 30 g a.i./ha), two locations in Canada: ERG, EST1, EST2, PPTOX, VIG1, VIG2, VIG3 scores
Assay type: in vivo, Brassica napus
Conditions: ratio >1 = positive contribution
Description: Tests were set up and conducted to asses the growth and performance of plants comprising AHAS full knock-out alleles, and to further analyze the correlation between the presence of full knockout and missense AHAS genes in Brassica plants and plant growth and herbicide tolerance of the Brassica plants in the field. To this end, the Brassica plants identified in Example 1 and 2 were backcrossed two times with an elite parent line, and subsequently selfed twice to obtain homozygous plants (BC2S2). Plants were grown as row plots in a split plot design with three replicates (main plots=herbicide treatments, subplots=genotypes) at two locations in Canada. Treatment pre-planting was carried out on the soil about two days before sowing with a dose of 0 (treatment A), 10 (treatment B), 20 (treatment C) or 30 (treatment D) g a.i./ha of thiencarbazone methyl. Herbicide tolerance was measured by scoring for different parameters. The parameter emergence (ERG) was scored at the cotyledon stage on a scale 1-9, where 1 means late emergence and 9 means early emergence. Establishment was scored 14 days after sowing (EST1) and 21 days after sowing (EST2). Scores were from 1 to 9, where 1 is the worst establishment (least plants that emerged), and 9 is the best establishment (most plants emerged). Phytotoxicity (PPTOX) was determined after establishment. Plants were evaluated on a scale of 1 to 9, where 1=completely yellowing, 5=50% of plant is yellow and 9=no yellowing. The vigor scores (see above) were determined at 1-2 leaf stage (VIG1), 7 days after VIG1 (VIG2) and 14 days after VIG1 (VIG3). The average values (Av) and standard deviations (SD) of the scores for the different parameters are represented in Table 7a-g.
Further, the contribution of the knock-out allele to herbicide tolerance conferred by the missense allele was calculated. First, the scores were corrected for a possible effect of the growth per se, independent of herbicide treatment. To this end, the scores for treatments B, C and D were divided by the scores for treatment A for the same genotype and for the same parameter (corrected herbicide tolerance scores). Next, the effect of the knock-out allele to these corrected herbicide tolerance scores obtained by the missense allele was calculated. Therefore, the corrected herbicide tolerance scores for the missense—knock-out allele combination was divided by the corrected herbicide tolerance scores for the missense allele—wild-type combination. In case the knock-out allele has no effect on herbicide tolerance conferred by the missense allele, this ratio should be 1. In case the knock-out allele positively contributes to the herbicide tolerance conferred by the missense allele, this ratio should be higher than 1. The results for the contribution of the knock-out allele to herbicide tolerance conferred by the missense allele as calculated above are shown in table 8.

[1] = Location A, treatment B 10 g a.i./ha pre-planting
[2] = Location A, treatment C 20 g a.i./ha pre-planting
[3] = Location A, treatment D 30 g a.i./ha pre-planting
[4] = Location B, treatment B 10 g a.i./ha pre-planting
[5] = Location B, treatment C 20 g a.i./ha pre-planting
[6] = Location B, treatment D 30 g a.i./ha pre-planting

COC(=O)c1csc(C)c1S(=O)(=O)NC(=O)n1nc(OC)n(C)c1=O [thiencarbazone-methyl, methyl 4-[(4,5-dihydro-3-methoxy-4-methyl-5-oxo-1H-1,2,4-triazol-1-yl)carbonylsulfamoyl]-5-methylthiophene-3-carboxylate]
relative contribution of HETO112 (AHAS1 KO) to herbicide tolerance conferred by HETO111 (AHAS3 missense): VIG2 [1]: 1.05 | relative contribution of HETO112 (AHAS1 KO) to herbicide tolerance conferred by HETO111 (AHAS3 missense): VIG3 [1]: 1.14 | relative contribution of HETO104 (AHAS3 KO) to herbicide tolerance conferred by HETO108 (AHAS1 missense): ERG [2]: 0.77 | relative contribution of HETO104 (AHAS3 KO) to herbicide tolerance conferred by HETO108 (AHAS1 missense): EST1 [2]: 0.77 | relative contribution of HETO104 (AHAS3 KO) to herbicide tolerance conferred by HETO108 (AHAS1 missense): EST2 [2]: 0.87 | relative contribution of HETO104 (AHAS3 KO) to herbicide tolerance conferred by HETO108 (AHAS1 missense): PPTOX [2]: 1.03 | relative contribution of HETO104 (AHAS3 KO) to herbicide tolerance conferred by HETO108 (AHAS1 missense): VIG1 [2]: 0.88 | relative contribution of HETO104 (AHAS3 KO) to herbicide tolerance conferred by HETO108 (AHAS1 missense): VIG2 [2]: 0.90 | relative contribution of HETO104 (AHAS3 KO) to herbicide tolerance conferred by HETO108 (AHAS1 missense): VIG3 [2]: 0.91 | relative contribution of HETO112 (AHAS1 KO) to herbicide tolerance conferred by HETO111 (AHAS3 missense): ERG [2]: 1.20 | relative contribution of HETO112 (AHAS1 KO) to herbicide tolerance conferred by HETO111 (AHAS3 missense): EST1 [2]: 1.19 | relative contribution of HETO112 (AHAS1 KO) to herbicide tolerance conferred by HETO111 (AHAS3 missense): EST2 [2]: 1.19 | relative contribution of HETO112 (AHAS1 KO) to herbicide tolerance conferred by HETO111 (AHAS3 missense): PPTOX [2]: 1.13 | relative contribution of HETO112 (AHAS1 KO) to herbicide tolerance conferred by HETO111 (AHAS3 missense): VIG1 [2]: 1.11 | relative contribution of HETO112 (AHAS1 KO) to herbicide tolerance conferred by HETO111 (AHAS3 missense): VIG2 [2]: 1.00 | relative contribution of HETO112 (AHAS1 KO) to herbicide tolerance conferred by HETO111 (AHAS3 missense): VIG3 [2]: 1.05 | relative contribution of HETO104 (AHAS3 KO) to herbicide tolerance conferred by HETO108 (AHAS1 missense): ERG [3]: 1.03 | relative contribution of HETO104 (AHAS3 KO) to herbicide tolerance conferred by HETO108 (AHAS1 missense): EST1 [3]: 1.03 | relative contribution of HETO104 (AHAS3 KO) to herbicide tolerance conferred by HETO108 (AHAS1 missense): EST2 [3]: 0.94 | relative contribution of HETO104 (AHAS3 KO) to herbicide tolerance conferred by HETO108 (AHAS1 missense): PPTOX [3]: 0.90 | relative contribution of HETO104 (AHAS3 KO) to herbicide tolerance conferred by HETO108 (AHAS1 missense): VIG1 [3]: 0.94 | relative contribution of HETO104 (AHAS3 KO) to herbicide tolerance conferred by HETO108 (AHAS1 missense): VIG2 [3]: 0.89 | relative contribution of HETO104 (AHAS3 KO) to herbicide tolerance conferred by HETO108 (AHAS1 missense): VIG3 [3]: 0.95 | relative contribution of HETO112 (AHAS1 KO) to herbicide tolerance conferred by HETO111 (AHAS3 missense): ERG [3]: 1.28 | relative contribution of HETO112 (AHAS1 KO) to herbicide tolerance conferred by HETO111 (AHAS3 missense): EST1 [3]: 1.36 | relative contribution of HETO112 (AHAS1 KO) to herbicide tolerance conferred by HETO111 (AHAS3 missense): EST2 [3]: 1.18 | relative contribution of HETO112 (AHAS1 KO) to herbicide tolerance conferred by HETO111 (AHAS3 missense): PPTOX [3]: 1.23 | relative contribution of HETO112 (AHAS1 KO) to herbicide tolerance conferred by HETO111 (AHAS3 missense): VIG1 [3]: 1.18 | relative contribution of HETO112 (AHAS1 KO) to herbicide tolerance conferred by HETO111 (AHAS3 missense): VIG2 [3]: 1.25 | relative contribution of HETO112 (AHAS1 KO) to herbicide tolerance conferred by HETO111 (AHAS3 missense): VIG3 [3]: 1.21 | relative contribution of HETO104 (AHAS3 KO) to herbicide tolerance conferred by HETO108 (AHAS1 missense): ERG [4]: 0.92 | relative contribution of HETO104 (AHAS3 KO) to herbicide tolerance conferred by HETO108 (AHAS1 missense): EST1 [4]: 1.07 | relative contribution of HETO104 (AHAS3 KO) to herbicide tolerance conferred by HETO108 (AHAS1 missense): EST2 [4]: 0.95 | relative contribution of HETO104 (AHAS3 KO) to herbicide tolerance conferred by HETO108 (AHAS1 missense): PPTOX [4]: 0.78 | relative contribution of HETO104 (AHAS3 KO) to herbicide tolerance conferred by HETO108 (AHAS1 missense): VIG1 [4]: 0.95 | relative contribution of HETO104 (AHAS3 KO) to herbicide tolerance conferred by HETO108 (AHAS1 missense): VIG2 [4]: 1.08 | relative contribution of HETO104 (AHAS3 KO) to herbicide tolerance conferred by HETO108 (AHAS1 missense): VIG3 [4]: 1.19 | relative contribution of HETO112 (AHAS1 KO) to herbicide tolerance conferred by HETO111 (AHAS3 missense): ERG [4]: 0.99 | relative contribution of HETO112 (AHAS1 KO) to herbicide tolerance conferred by HETO111 (AHAS3 missense): EST1 [4]: 1.00 | relative contribution of HETO112 (AHAS1 KO) to herbicide tolerance conferred by HETO111 (AHAS3 missense): EST2 [4]: 1.06 | relative contribution of HETO112 (AHAS1 KO) to herbicide tolerance conferred by HETO111 (AHAS3 missense): PPTOX [4]: 0.84 | relative contribution of HETO112 (AHAS1 KO) to herbicide tolerance conferred by HETO111 (AHAS3 missense): VIG1 [4]: 0.89 | relative contribution of HETO112 (AHAS1 KO) to herbicide tolerance conferred by HETO111 (AHAS3 missense): VIG2 [4]: 0.95 | relative contribution of HETO112 (AHAS1 KO) to herbicide tolerance conferred by HETO111 (AHAS3 missense): VIG3 [4]: 1.04 | relative contribution of HETO104 (AHAS3 KO) to herbicide tolerance conferred by HETO108 (AHAS1 missense): ERG [5]: 1.15 | relative contribution of HETO104 (AHAS3 KO) to herbicide tolerance conferred by HETO108 (AHAS1 missense): EST1 [5]: 1.07 | relative contribution of HETO104 (AHAS3 KO) to herbicide tolerance conferred by HETO108 (AHAS1 missense): EST2 [5]: 1.02 | relative contribution of HETO104 (AHAS3 KO) to herbicide tolerance conferred by HETO108 (AHAS1 missense): PPTOX [5]: 1.28 | relative contribution of HETO104 (AHAS3 KO) to herbicide tolerance conferred by HETO108 (AHAS1 missense): VIG1 [5]: 1.22 | relative contribution of HETO104 (AHAS3 KO) to herbicide tolerance conferred by HETO108 (AHAS1 missense): VIG2 [5]: 1.15 | relative contribution of HETO104 (AHAS3 KO) to herbicide tolerance conferred by HETO108 (AHAS1 missense): VIG3 [5]: 1.25 | relative contribution of HETO112 (AHAS1 KO) to herbicide tolerance conferred by HETO111 (AHAS3 missense): ERG [5]: 0.92 | relative contribution of HETO112 (AHAS1 KO) to herbicide tolerance conferred by HETO111 (AHAS3 missense): EST1 [5]: 1.13 | relative contribution of HETO112 (AHAS1 KO) to herbicide tolerance conferred by HETO111 (AHAS3 missense): EST2 [5]: 1.07 | relative contribution of HETO112 (AHAS1 KO) to herbicide tolerance conferred by HETO111 (AHAS3 missense): PPTOX [5]: 0.88 | relative contribution of HETO112 (AHAS1 KO) to herbicide tolerance conferred by HETO111 (AHAS3 missense): VIG1 [5]: 0.93 | relative contribution of HETO112 (AHAS1 KO) to herbicide tolerance conferred by HETO111 (AHAS3 missense): VIG2 [5]: 0.94 | relative contribution of HETO112 (AHAS1 KO) to herbicide tolerance conferred by HETO111 (AHAS3 missense): VIG3 [5]: 0.98 | relative contribution of HETO104 (AHAS3 KO) to herbicide tolerance conferred by HETO108 (AHAS1 missense): ERG [6]: 0.93 | relative contribution of HETO104 (AHAS3 KO) to herbicide tolerance conferred by HETO108 (AHAS1 missense): EST1 [6]: 1.00
